Literature values as cited in patent US20050255161A1, “Method for the long term stabilization of labile compounds at room temperature in pharmaceutical preparations containing water” (priority 2004, published 2005).
Where two headings read alike, the source gives them in different places.

solubility in aqueous systems (low acidic medium): ~10 μg's
solubility in aqueous systems (slightly alkaline medium): ~100 μg's
SMILES: CCCCC[C@H](O)/C=C/[C@H]1[C@H](O)CC(=O)[C@@H]1CCCCCCC(=O)O [prostaglandin E1, (13E)-(15S)-11alpha, 15-dihydroxy-9-oxoprost-13-enoate]
